Data reported in EPA's ToxValDB 9.5.
“And” between values parts separate entries of the source, which are not always exact repeats. Equal entries are not always repeated.

Tests used:
[1] = test system: Rattus norvegicus
[2] = test system: Rattus norvegicus; remark: listed apart in the source
[3] = test system: Rattus norvegicus; conditions: subchronic; duration: 13 weeks; oral; diet; M; Sprague-Dawley; renal
[4] = test system: Rattus norvegicus; conditions: subchronic, oral, M/F
[5] = test system: Mus musculus; conditions: uterotrophic, Active
[6] = test system: Rattus norvegicus; conditions: for LEL: uterotrophic, Active; for NOEL: Hershberger, oral, gavage
[7] = test system: Rattus norvegicus; conditions: short-term; duration: 3 days; injection; subcutaneous; F; Crj:CD; uterus: uterine dry weight (absolute)
[8] = test system: Rattus norvegicus; conditions: for NOAEL: Sprague-Dawley
[9] = test system: Oryctolagus sp.; conditions: acute; oral
[10] = subchronic, duration: 90 days, oral, M/F, hematologic, hepatic and renal toxicity
[11] = chronic, duration: 1 years, oral, blood pressure and body weight histopathological liver, kidney and spleen
[12] = duration: 1 days, injection, subcutaneous
[13] = duration: 7 days, injection, subcutaneous
[14] = chronic, oral, gavage, F, increased kidney weight in female rats
[15] = subchronic, duration: 13 weeks, inhalation, M/F, increased kidney weight in female rats and adrenal weight in male and female rats
[16] = chronic, oral, M/F, renal damage
[17] = chronic, duration: 2 years, oral, diet, M/F, reduced weight gains hematological females

With `CC1CO1` (racemic) [(+/-)-1,2-Propylene oxide] the LOAEL ([1]; chronic, duration: 2 years, inhalation, M/F, nest-like infolds of the nasal respiratory epithelium) was 71 mg/m3 and the LOAEL ([2]; chronic, duration: 2 years, inhalation, intermittent, Epithelium: Unspecified) was 71 mg/m3.
`O=C(O)COc1ccc(Cl)cc1Cl` [2,4-Dichlorophenoxyacetic acid] gave an LOAEL [1, 10] of 5 mg/kg-day, an NOAEL [1, 10] of 1 mg/kg-day and an NOAEL ([2]; chronic, duration: 91 days, oral, diet, Blood: Toxicity + Kidney: Toxicity + Liver: Toxicity) of 1 mg/kg-day. For the same compound, the NOAEL [3] was 16.6 mg/kg-day.
Compound `Cc1ccc(O)cc1C` [3,4-Dimethylphenol] has an LOAEL [1, 11] of 14 mg/kg-day, an NOEL [1, 11] of 1.4 mg/kg-day and an NOEL ([2]; chronic, duration: 8 months, oral, Cardiovascular system: Altered blood pressure + Organs, major: Lesions + Whole body: Decreased weight) of 1.4 mg/kg-day.
`COP(=O)(NC(C)=O)SC` (centres undefined) [Acephate] showed an LEL ([1]; subchronic, duration: 90 days, oral, diet, M, Inhibition of brain ChE) of 0.12 mg/kg-day and an LOAEL ([2]; subchronic, duration: 13 weeks, oral, diet, Brain: Decreased cholinesterase activity) of 0.192 mg/kg-day.
For `CC(C)(c1ccc(O)cc1)c1ccc(O)cc1` [Bisphenol A], the LOAEL ([1]; chronic, oral, M/F, reduced mean body weight) was 50 mg/kg-day, the NOAEL ([2]; subchronic, duration: 13 weeks, oral, Whole body: Decreased weight) was 750 ppm and the NOEL ([4]; gavage, Crj:CD, Deaths + Clinical Observation: Loose stool Locomotor activity decrease, Hypopnea Subnormal temperature decrease + Body Weight Changes: …) was 40 mg/kg-day. The LEL ([5]; duration: 0.17 days, injection, subcutaneous) was 0.00228 mg, the LEL [5, 12] was 10 mg/kg-day and the LEL ([5]; duration: 3 days, injection, intraperitoneal) was 20 mg/kg-day. For the same compound, the LEL ([5]; duration: 3 days, osmotic minipump) was 100 mg/kg-day, the LEL [5, 13] was 100 mg/kg-day and the LEL [6, 12] was 400 mg/kg-day. For the same compound, the LEL ([6]; duration: 2 days, injection, subcutaneous) was 200 mg/kg-day, the LEL ([6]; duration: 4 days, injection, intraperitoneal) was 0.5 mg/kg-day and the LEL [6, 13] was 11 mg/kg-day. It also gave an LEL ([6]; duration: 7 days, lactation) of 150 mg/kg-day, an LOEL [7] of 20 mg/kg-day and an NOEL [7] of 2 mg/kg-day. The LC50 ([8]; acute, inhalation, particle, Fischer 344) was greater than 170 µg/mL, the LD50 ([8]; acute, oral, Fischer 344) was 4100 mg/kg and 3300 mg/kg and the NOAEL ([8]; developmental, duration: 10 days, oral, gavage) was greater than 640 mg/kg-day. The NOAEL ([8]; reproduction developmental, duration: 13 weeks, oral, diet, generation: F0) was 75 ppm, the NOAEL ([8]; reproduction developmental, duration: 13 weeks, oral, diet, generation: F1) was 750 ppm and the LOAEL ([8]; reproduction developmental, duration: 103 weeks, oral, diet, Fischer 344, generation: F0) was 1000 ppm. It also gave an LD50 [9] of 2230 mg/kg.
Compound `CC(C)c1ccccc1` [Cumene] has an LOAEL [1, 14] of 331 mg/kg-day, an NOAEL [1, 14] of 110 mg/kg-day and an LOAEL [1, 15] of 5910 mg/m3. It also gave an NOAEL [1, 15] of 2440 mg/m3, an NOAEL ([2]; chronic, duration: 194 days, oral, gavage, Kidney: Increased weight) of 154 mg/kg-day and an NOAEL ([2]; short-term, duration: 4 weeks, inhalation, intermittent, Central nervous system: Involvement + Nose: Irritation) of 517 mg/m3.
`COC(=O)c1ccc(C(=O)OC)cc1` [Dimethyl terephthalate] gave an LOAEL ([1]; chronic, oral, diet, M/F, chronic kidney inflammation) of 125 mg/kg-day, an LOAEL ([2]; chronic, duration: 103 weeks, oral, diet, Kidney: Inflammation) of 125 mg/kg-day and an NOAEL ([4]; duration: 90 days, diet, Body Weight Changes: Weight gain decrease + Histopathology: Liver: Hepatocyte hypertrophy, diffuse) of 480 mg/kg-day.
`CC(=O)[O][Hg][c]1ccccc1` [Phenylmercuric acetate] was tested, and the LOAEL [1, 16] was 0.042 mg/kg-day, the NOAEL [1, 16] was 0.0084 mg/kg-day and the NOAEL ([2]; chronic, duration: 2 years, oral, diet, Kidney: Damage) was 0.0084 mg/kg-day.
In the case of `CCNc1nc(Cl)nc(NCC)n1` [Simazine], the LOAEL [1, 17] is reported as 5.3 mg/kg-day, the NOAEL [1, 17] is reported as 0.52 mg/kg-day and the NOAEL ([2]; chronic, duration: 2 years, oral, diet, Blood: Hematological effects + Whole body: Decreased weight gain) is reported as 0.52 mg/kg-day. It also gave an NOEL ([6]; duration: 7 days, Wistar, inactive + Negative + neither + AST wt decreased at 75 and above / doses above 75 associated with >10% decrease in body wt / cite a …) of 6.25 mg/kg-day and an NOEL ([6]; duration: 10 days, Sprague-Dawley, inactive + Negative + Negative + neither + AST wt decreased at 75 and above / doses above 75 associated with >10% decrease in body wt) of 25 mg/kg-day.
For `C=CBr` [Vinyl bromide], the LOAEL ([1]; chronic, inhalation, M/F, hypertrophy, basophilic and eosinophilic foci, in the liver) was 43 mg/m3 and the LOAEL ([2]; chronic, duration: 24 months, inhalation, intermittent, Liver: Basophilic foci + Liver: Eosinophilic foci + Liver: Hypertrophy) was 42.4 mg/m3.
`S=C([S-])NCCNC(=S)[S-].[Zn+2]` [Zineb] was tested, and the LOAEL ([1]; chronic, oral, M/F, thyroid hyperplasia) was 25 mg/kg-day and the LOAEL ([2]; chronic, duration: 2 years, oral, diet, hyperplasia) was 25 mg/kg-day.
